{"source": "patent US20040235920A1", "about": "“Novel use of substituted aminomethyl chromans for the treatment of movement disorders and of adverse effects induced by drugs administered to treat extrapyramidal movement disorders” (priority 2001, published 2004)", "key": {"[1]": {"system": "reserpinized rat or mouse", "experiment": "Reserpinized rat or mouse, akinesia in activity meters", "assay_type": "in vivo", "conditions": "24 h after reserpine", "experimental": "A typical animal model is the reserpinized rat or mouse (e.g. M. S. Starr and B. S. Starr, J. Neural Transm.—Park. Dis. Dement. Sect., 1994; 7: 133-142; M. Gossel et al., J. Neural Transm.—Park. Dis. Dement. Sect., 1995; 10: 27-39; N. R. Hughes et al., Mov. Disord., 1998; 13: 228-233). Reserpine is a potent depleter of monoamines and produces nearly complete akinesia in both species. Prominent 24 h after application, the distance travelled and the time active is nearly zero as measured in conventional activity meters."}, "[2]": {"system": "Pietrain pig", "experiment": "Campus Syndrome in the Pietrain pig, tremor", "assay_type": "in vivo", "conditions": "when standing and during locomotion", "source_text": "Typical genetic models in mutant animals are the Campus Syndrome in the Pietrain pig according to A. Richter et al. (Exp. Neurology, 1995; 134: 205-213) or the Weaver mutant mouse according to J. R. Simon and B. Ghetti (Mol. Neurobiol., 1994; 9: 183-189). In the Campus Syndrome model, these mutant pigs show a high-frequency tremor when standing and during locomotion, but not while lying at rest. Assessment of tremor is made by accelerometric recording. In the Weaver mutant mouse, degenerative cerebellar atrophy is found in association with tremor, gait instability, and toppling over the sides after a few steps."}, "[3]": {"system": "oxotremorine-induced tremor", "experiment": "Oxotremorine-induced tremor (rating scale)", "assay_type": "in vivo", "experimental": "A typical animal model for drug-induced tremors is the oxotremorine-induced tremor (e.g. H. Hallberg and O. Almgren, Acta Physiol. Scand., 1987; 129: 407-13; J. G. Clement and W. R. Dyck, J. Pharmacol. Meth., 1989; 22: 25-36). Oxotremorine induces tremor which is measured by a rating scale. (−)-(R)-2-{4-[[3,4-dihydro-2H-benzopyran-2-yl)-methyl]amino]butyl}-1,2-benzoisothiazol-3-(2H)-on-1,1-dioxide or one of its pharmaceutically acceptable salt inhibit oxotremorine-induced tremors."}, "[4]": {"system": "rats challenged with haloperidol", "experiment": "Neuroleptics-induced muscle rigidity in rats (haloperidol)", "assay_type": "in vivo, rat", "conditions": "resistance to passive flexion and extension of the hind limb", "source_text": "A typical animal model is neuroleptics-induced muscle rigidity in rats according to S. Wolfarth et al., Arch. Pharmacol. 1992; 345: 209-212. Rats are challenged with the conventional neuroleptic drug haloperidol which enhances muscle tone. Muscle tone is electromechanically measured as the resistence to passive flexion and extension of the hind limb. (−)-(R)-2-{4-[[3,4-dihydro-2H-benzopyran-2-yl)-methyl]amino]butyl}-1,2-benzoisothiazol-3-(2H)-on-1,1-dioxide or a pharmaceutically acceptable salt thereof decreased the muscle tone enhanced by haloperidol."}, "[5]": {"system": "cataleptic rat", "experiment": "Reversal of catalepsy in rats (oral ED50)", "assay_type": "in vivo", "conditions": "result in words", "experimental": "Extrapyramidal motor side effects in e.g. rodents are measured by the ability of a drug to induce catalepsy. Catalepsy is defined as a state where an animal continues to remain in an unnormal (nonphysiological ‘uncomfortable’) posture for a long time (e.g.: M. E. Stanley and S. D. Glick, Neuropharmacology, 1996; 15: 393-394; C. J. E. Niemegeers and P. Janssen, Life Sci., 1979, […]). For example, if a hindpaw of a rat is placed on an elevated level, e.g. a platform elevated 3 cm above ground level, a normal rat immediately withdraws the hindpaw from the platform to the ground level. A cataleptic rat remains in this unnatural posture even for minutes."}}, "data": [{"smiles": "O=C1c2ccccc2S(=O)(=O)N1CCCCNC[C@H]1CCc2ccccc2O1", "note": "[(−)-(R)-2-{4-[[3,4-dihydro-2H-benzopyran-2-yl)-methyl]amino]butyl}-1,2-benzoisothiazol-3-(2H)-on-1,1-dioxide]", "values": [{"measurement": "akinesia", "setting": "[1]", "value": "dose-dependently reduced akinesia"}, {"measurement": "distance travelled and time active", "setting": "[1]; activity meters", "value": "restored distance travelled and time active to about the level of normal animals"}, {"measurement": "Campus Syndrome tremor", "setting": "[2]", "value": "reduced disabling tremor when standing and during locomotion"}, {"measurement": "oxotremorine-induced tremors", "setting": "[3]", "value": "inhibit"}, {"measurement": "muscle tone enhanced by haloperidol", "setting": "[4]", "value": "decreased"}, {"measurement": "potency in reversing catalepsy", "setting": "[5]", "value": "extraordinary potency in reversing catalepsy"}]}]}
